Experimental findings from the NIST ThermoML archive (doi:10.1021/je060496l) are described below.

For orientation: mass density means mass per unit of volume.

Numbers after ± are expanded uncertainties.

The conditions of the data set: 101 kPa, Liquid.

Consider `OCCCO` [propan-1,3-diol], for which the mass density was 1049.9 ± 1.6 kg/m3 (298.15 K); 1047 ± 1.7 kg/m3 (303.15 K); 1044.1 ± 1.8 kg/m3 (308.15 K); 1040.8 ± 1.8 kg/m3 (313.15 K); 1037.8 ± 1.9 kg/m3 (318.15 K); 1034.8 ± 2 kg/m3 (323.15 K). In addition, the mass density reads like this: (328.15 K) 1031.4 ± 2 kg/m3; (333.15 K) 1028.2 ± 2.1 kg/m3.
Regarding `CC(C)O` [propan-2-ol], the mass density is given as 780.6 ± 1.2 kg/m3 (298.15 K); 776.6 ± 1.2 kg/m3 (303.15 K); 772.3 ± 1.3 kg/m3 (308.15 K); 767.9 ± 1.3 kg/m3 (313.15 K); 763.3 ± 1.3 kg/m3 (318.15 K); 758.6 ± 1.4 kg/m3 (323.15 K). Moreover, the mass density reads like this: (328.15 K) 753.8 ± 1.4 kg/m3; (333.15 K) 748.9 ± 1.5 kg/m3.
`CCCO` [propan-1-ol]: the mass density was 799.6 ± 1.2 kg/m3 (298.15 K); 795.5 ± 1.2 kg/m3 (303.15 K); 791.5 ± 1.3 kg/m3 (308.15 K); 787.3 ± 1.3 kg/m3 (313.15 K); 783.3 ± 1.4 kg/m3 (318.15 K); 779 ± 1.4 kg/m3 (323.15 K). The mass density is given as 774.9 ± 1.5 kg/m3 (328.15 K) and 770.8 ± 1.6 kg/m3 (333.15 K).
Consider `OCC(O)CO` [glycerol], for which the mass density (298.15 K) was 1258.9 ± 2 kg/m3; the mass density (303.15 K) came out at 1255.6 ± 2 kg/m3; the mass density (308.15 K) was 1252.7 ± 2.1 kg/m3; the mass density (313.15 K) turned out to be 1249.5 ± 2.1 kg/m3; the mass density (318.15 K) is 1246.2 ± 2.2 kg/m3; the mass density (323.15 K) came to 1242.9 ± 2.3 kg/m3. The mass density worked out at 1239.6 ± 2.3 kg/m3 (328.15 K) and 1236 ± 2.4 kg/m3 (333.15 K).
With `CC(O)CO` (stereo not given) [1,2-propanediol], the mass density runs as follows: (298.15 K) 1032.5 ± 1.6 kg/m3; (303.15 K) 1029.2 ± 1.6 kg/m3; (308.15 K) 1025.3 ± 1.7 kg/m3; (313.15 K) 1021.5 ± 1.8 kg/m3; (318.15 K) 1018 ± 1.8 kg/m3; (323.15 K) 1014 ± 1.9 kg/m3. For the same compound, the mass density is 1010.2 ± 1.9 kg/m3 (328.15 K) and 1006.2 ± 2 kg/m3 (333.15 K).
